Literature values, collected in patent US6413950B1, “Pharmaceutical preparation containing dithranol” (esparma GmbH, priority 1999, dated 2002).

Settings: background statement on the active agent dithranol

solubility in water: not soluble in water
SMILES: O=C1c2c(O)cccc2Cc2cccc(O)c21 [Dithranol]
